Reference: US20200347148A1, “METHODS FOR ENHANCING AND MAINTAINING CAR-T CELL EFFICACY” (Bellicum Pharmaceuticals, Inc., priority 2017, published 2020)
“Also recorded” adds a separate entry of the source.

Key:
[1] = tested on: iC9 (inducible caspase-9) safety switch; test: Rimiducid activation of the iC9 safety switch in CAR-T-treated tumor-bearing NSG mice; format: in vivo
Protocol: Animal Models. To evaluate anti-tumor activity of CD19-targeted CAR-T cells, NSG mice were engrafted with 5×10^5 CD19^+ Raji or Raji-EGFPluc tumor cells by intravenous (i.v.) tail vein injection. After 4 days, variable doses of non-transduced and gene-modified T cells were administered by i.v. (tail) injection. In some experiments, mice were rechallenged with Raji-EGFPluc […] as above. To test CD123-specific CAR-T activity, 1×10^6 CD123^+ THP-1-EGFPluc were engrafted by i.v. injection, followed by infusion of 2.5×10^6 unmodified or CAR-T cells 7 days post-tumor engraftment. iC9 titration experiments were performed by treating Raji tumor-bearing mice with 5×10^6 iC9-CD19.ζ-MC-modified T cells followed by injection of rimiducid 7 days after T cell injection at 0.00005, 0.0005, 0.005, 0.05, 0.5 and 5 mg/kg. To evaluate cytokine-related toxicities, neutralizing antibodies against hIL-6, hIFN-γ and TNF-α or an isotype control antibody (Bio X Cell, West Lebanon, N.H.) were administered by i.p. injection with 100 ug twice weekly. Additional experiments were performed using positively selected CD4^+ and CD8+ iC9-CD19.ζ-MC-modified T cells using CD4 or CD8 microbeads and MACS columns (Miltenyi Biotec). In vivo tumor growth and T cell proliferation was measured by bioluminescence imaging (BLI) by i.p. injection of 150 mg/kg D-luciferin (Perkin Elmer, Waltham, Mass.) and imaged using the IVIS imaging system (Perkin Elmer). Photon emission was analyzed by whole body region-of-interest (ROI) and signal measured as average radiance (photons/second/cm2/steradian).
While administration of high dose rimiducid (5 mg/kg) allowed the persistence of low level CAR-T cells, titration of rimiducid may permit the retention of more gene-modified T cells while mitigating cytokine-related toxicities. T cells were co-transduced with iC9-CD19.ζ-MC and EGFPluc and administered into Raji-bearing mice. Following the onset of cachexia (>10% body weight loss), a log-titration of rimiducid (5-5×10^−5 mg/kg) was administered as a single i.p. injection (FIG. 6A).
To further study cachexia associated with administration of iC9-CAR.-MC-modified T cells, the CD19-redirected construct was assayed against CD19^+ Daudi tumors in vivo, and neutralizing antibodies targeting human IL-6, IFN-γ and TNF-α, all of which are cross-reactive with murine cytokine receptors, were administered, and followed by monitoring of mouse weight loss. Here, tumor-bearing mice were treated with 5×10^6 iC9-CD19.ζ-MC transduced T cells and following >10% weight loss, intervention with either a single i.p. dose of rimiducid (0.5 mg/kg) or vehicle, or twice weekly injections of 100 ug per mouse anti-hIFN-γ, hIL-6 or hTNF-α was initiated (FIG. 9A). […] 5×10^6 iC9-CD19.ζ-MC-modified T cells were injected in to Daudi-bearing NSG mice and then treated with 0.5 mg/kg rimiducid after >10% weight loss or with i.p. injections with […] twice per week with an isotype antibody (control) or with neutralizing antibodies against human TNF-α, IL-6 and IFN-γ. Weight recovery was monitored until day 28. […] Thus, cytokine blockade provides a second effective mechanism to resolve the toxicity of this potent approach.

[2] = Iuliucci J D, et al., J Clin Pharmacol. 2001; cited from earlier work
[3] = Raji model, 24 hours post-rimiducid

Structure (SMILES): CC[C@H](C(=O)N1CCCC[C@H]1C(=O)O[C@H](CCc1ccc(OC)c(OC)c1)c1cccc(OCC(=O)NCCNC(=O)COc2cccc([C@@H](CCc3ccc(OC)c(OC)c3)OC(=O)[C@@H]3CCCCN3C(=O)[C@@H](CC)c3cc(OC)c(OC)c(OC)c3)c2)c1)c1cc(OC)c(OC)c(OC)c1 (relative stereo) [rimiducid, 2-Piperidinecarboxylic acid, 1-[(2S)-1-oxo-2-(3,4,5-trimethoxyphenyl)butyl]-, 1,2-ethanediylbis[imino(2-oxo-2,1-ethanediyl)oxy-3,1-phenylene[(1R)-3-(3,4-dimethoxyphenyl)propylidene]] ester, [2S-[1(R*),2R*[S*[S*[1(R*),2R*]]]]]-(9CI)]
- serum concentrations of hTNF-α ([1]; Daudi model, 0.5 mg/kg single i.p.): significantly reduced
- CAR-T BLI after rimiducid titration ([1]; Raji model, 5-5×10^−5 mg/kg single i.p.): reduced in a rimiducid dose-dependent manner
- serum cytokine levels (IL-6, IFN-γ, TNF-α) after rimiducid titration [1, 3]: decreased serum cytokine levels
- serum levels of human cytokines (IFN-γ, IL-6) after rimiducid [1, 3]: reverted to baseline levels
- resolution of CAR-related toxicity (weight loss) ([1]; Raji model, iC9-CD19.ζ-MC T cells, single 5 mg/kg i.p., 5 mg/kg): promptly resolved toxicity; also recorded: successfully resolved
- resolution of cachexia ([1]; THP-1 model, iC9-CD123.ζ-MC T cells, without affecting tumor control): could be resolved
- safety in healthy volunteers [2]: proven safe
